Our source for the EC50 values is patent US20070037816A1, “Bicyclic piperazines as metabotropic glutatmate receptor antagonists” (AstraZeneca AB, priority 2005, published 2007).

What is called EC50 is the midpoint of the concentration-response curve.

T1 sequence (P41594 21-942 isoform P41594-3 limits assumed): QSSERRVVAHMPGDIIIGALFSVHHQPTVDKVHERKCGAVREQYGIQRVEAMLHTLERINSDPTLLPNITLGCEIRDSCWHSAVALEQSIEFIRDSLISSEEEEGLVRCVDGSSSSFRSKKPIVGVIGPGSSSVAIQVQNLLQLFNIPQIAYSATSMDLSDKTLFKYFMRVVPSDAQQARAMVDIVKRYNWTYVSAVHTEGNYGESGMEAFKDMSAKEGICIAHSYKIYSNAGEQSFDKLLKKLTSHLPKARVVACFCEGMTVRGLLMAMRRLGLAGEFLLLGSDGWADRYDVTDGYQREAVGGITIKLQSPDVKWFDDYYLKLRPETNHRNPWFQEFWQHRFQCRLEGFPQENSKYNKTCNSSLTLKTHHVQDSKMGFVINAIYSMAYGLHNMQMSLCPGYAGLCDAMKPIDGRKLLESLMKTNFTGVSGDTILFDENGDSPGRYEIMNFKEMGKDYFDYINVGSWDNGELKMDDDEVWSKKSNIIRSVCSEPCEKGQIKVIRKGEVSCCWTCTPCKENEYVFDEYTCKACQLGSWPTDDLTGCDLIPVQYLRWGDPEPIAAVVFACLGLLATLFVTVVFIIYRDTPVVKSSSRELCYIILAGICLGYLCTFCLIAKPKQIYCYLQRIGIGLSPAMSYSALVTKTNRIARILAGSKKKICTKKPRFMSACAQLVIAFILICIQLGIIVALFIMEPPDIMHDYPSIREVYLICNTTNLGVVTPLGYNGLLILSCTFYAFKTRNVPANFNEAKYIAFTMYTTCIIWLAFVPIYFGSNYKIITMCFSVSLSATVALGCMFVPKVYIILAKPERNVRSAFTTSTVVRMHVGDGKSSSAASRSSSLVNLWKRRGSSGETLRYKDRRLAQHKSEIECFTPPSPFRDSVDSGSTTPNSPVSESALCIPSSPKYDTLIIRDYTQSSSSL

The assay has as its target T1, human mGluR5d (Homo sapiens, UniProt P41594).
T1 construct: expressed in transfected cells; host or cells: GHEK (HEK cells expressing a glutamate transporter) for the IP3 assay
The assay can be described thus: Functional assessment of mGluR5 antagonism in cell lines expressing mGluR5d (FLIPR calcium mobilization / IP3 turnover; assay not given). The note with it: cells expressing human mGluR5d; assay (FLIPR or IP3) not stated. Type of assay: cell-based. An excerpt:
The pharmacological properties of the compounds of the invention can be analyzed using standard assays for functional activity. Examples of glutamate receptor assays are well known in the art as described in for example Aramori et al., Neuron 8:757 (1992), Tanabe et al., Neuron 8:169 (1992), Miller et al., J. Neuroscience 15: 6103 (1995), Balazs, et al., J. Neurochemistry 69:151 (1997). The methodology described in these publications is incorporated herein by reference. Conveniently, the compounds of the invention can be studied by means of an assay that measures the mobilization of intracellular calcium, [Ca^2+]i in cells expressing mGluR5.
Intracellular calcium mobilization was measured by detecting changes in fluorescence of cells loaded with the fluorescent indicator fluo-3. Fluorescent signals were measured using the FLIPR system (Molecular Devices). A two addition experiment was used that could detect compounds that either activate or antagonize the receptor.
For FLIPR analysis, cells expressing human mGluR5d were seeded on collagen coated clear bottom 96-well plates with black sides and analysis of [Ca^2+]i mobilization was done 24 hours after seeding.
FLIPR experiments were done using a laser setting of 0.800 W and a 0.4 second CCD camera shutter speed. Each FLIPR experiment was initiated with 160 μL of buffer present in each well of the cell plate. After each addition of the compound, the fluorescence signal was sampled 50 times at 1 second intervals followed by 3 samples at 5 second intervals. Responses were measured as the peak height of the response within the sample period.
EC50 and IC50 determinations were made from data obtained from 8-point concentration response curves (CRC) performed in duplicate. Agonist CRC were generated by scaling all responses to the maximal response observed for the plate. Antagonist block of the agonist challenge was normalized to the average response of the agonist challenge in 14 control wells on the same plate.
We have validated a secondary functional assay for mGluR5d based on Inositol Phosphate (IP3) turnover. IP3 accumulation is measured as an index of receptor mediated phospholipase C turnover. GHEK cells stably expressing the human mGluR5d receptors were incubated with [3H] myo-inositol overnight, washed three times in HEPES buffered saline and pre-incubated for 10 minutes with 10 mM LiCl. Compounds (agonists) were added and incubated for 30 minutes at 37° C. Antagonist activity was determined by pre-incubating test compounds for 15 minutes, then incubating in the presence of glutamate (80 μM) or DHPG (30 μM) for 30 minutes. Reactions were terminated by the addition of perchloric acid (5%). Samples were collected and neutralized, and inositol phosphates were separated using Gravity-Fed Ion-Exchange Columns.
Functional Assessment of mGluR5 Antagonism in Cell Lines Expressing mGluR5d
The properties of the compounds of the invention can be analyzed using standard assays for pharmacological activity. Examples of glutamate receptor assays are well known in the art as described in for example Aramori et al, Neuron 8:757 (1992), Tanabe et al., Neuron 8:169 (1992), Miller et al, J. Neuroscience 15: 6103 (1995), Balazs, et al, J. Neurochemistry 69:151 (1997). The methodology described in these publications is incorporated herein by reference. Conveniently, the compounds of the invention can be studied by means of an assay (FLIPR) that measures the mobilization of intracellular calcium, [Ca^2+]i in cells expressing mGluR5 or another assay (IP3) that measures inositol phosphate turnover.
Cells expressing human mGluR5d as described in W097/05252 are seeded at a density of 100,000 cells per well on collagen coated clear bottom 96-well plates with black sides and experiments are done 24 h following seeding. […]
In general terms: Calcium flux is commonly read through the fluorescence of an indicator in the cells.
In the case of `Cc1cccc(-n2nnc([C@H]3CC[C@H]4CN(c5ncccc5C#N)CCN43)n2)c1` (racemic) [Example 5.4, (±)-2-[(6R,8aS)-6-[2-(3-methylphenyl)-2H-tetrazol-5-yl]hexahydropyrrolo[1,2-a]pyrazin-2(1H)-yl]nicotinonitrile], the EC50 was 16 nM.

For the molecule `N#Cc1cccnc1N1CCN2[C@@H](CC[C@@H]2c2cn(-c3cccc(F)c3)nn2)C1` (racemic) [Example 4.1, (±)-2-[(6R,8aS)-6-[1-(3-fluorophenyl)-1H-1,2,3-triazol4-yl]hexahydropyrrolo[1,2-a]pyrazin-2(1H)-yl]nicotinonitrile], the EC50 was 219 nM.

For `N#Cc1cccc(-c2cc([C@H]3CCC[C@H]4CN(c5nccnc5C#N)CCN43)no2)c1` (racemic) [Example 13.1, (±)-3-[(6R,9aS)-6-[5-(3-cyanophenyl)isoxazol-3-yl]octahydro-2H-pyrido[1,2-a]pyrazin-2-yl]pyrazine-2-carbonitrile], the EC50 came to 159 nM.

With `N#Cc1nccnc1N1CCN2[C@@H](CC[C@@H]2c2nnn(-c3cccc(Cl)c3)n2)C1` (racemic) [Example 5.1, (±)-3-[(6R,8aS)-6-[2-(3-chlorophenyl)-2H-tetrazol-5-yl]hexahydropyrrolo[1,2-a]pyrazin-2(1H)-yl]pyrazine-2-carbonitrile], the EC50 is 10 nM.

`N#Cc1ccc(N2CCN3[C@@H](CC[C@@H]3c3cc(-c4cccc(Cl)c4)on3)C2)nc1` (racemic) [Example 6.2, (±)-6-[(6R,8aS)-6-[5-(3-chlorolphenyl)isoxazol-3-yl]hexahydropyrrolo[1,2-a]pyrazin-2(1H)-yl]nicotinonitrile]: the EC50 worked out at 2410 nM.

For the molecule `N#Cc1nccnc1N1CCN2[C@@H](CC[C@@H]2c2cc(-c3cccc(Cl)c3)no2)C1` (racemic) [Example 8.1, (±)-3-[(6R,8aS)-6-[3-(3-chlorophenyl)isoxazol-5-yl]hexahydropyrrolo[1,2-a]pyrazin-2(1H)-yl]pyrazine-2-carbonitrile], the EC50 worked out at 377 nM.
